Test results taken from article PMC10177380 (Cancers, 2023).
Like-named read-outs stand apart in the source and are kept apart here.

Tests used:
[1] = parameters: method as in earlier work; settings: cited from earlier work
[2] = Selectivity cytotoxicity index (GI50 in MCF10A/GI50 in Du145); settings: human, MCF10A normal breast cells and Du145 prostate cancer cells
HT29 colon = tested on: HT29 colon; parameters: method as in PMID 36296713, PMID 36142383; settings: cited from earlier work
U87 glioblastoma = tested on: U87 glioblastoma; parameters: method as in PMID 36296713, PMID 36142383; settings: cited from earlier work
MCF7 breast = tested on: MCF7 breast; parameters: method as in PMID 36296713, PMID 36142383; settings: cited from earlier work
A2780 ovarian = tested on: A2780 ovarian; parameters: method as in PMID 36296713, PMID 36142383; settings: cited from earlier work
A431 skin = tested on: A431 skin; parameters: method as in PMID 36296713, PMID 36142383; settings: cited from earlier work
Du145 prostate = tested on: Du145 prostate; parameters: method as in PMID 36296713, PMID 36142383; settings: cited from earlier work
BE2C neuroblastoma = tested on: BE2C neuroblastoma; parameters: method as in PMID 36296713, PMID 36142383; settings: cited from earlier work
[3] = tested on: non-tumour derived MCF10A breast line; parameters: method as in PMID 36296713, PMID 36142383; settings: cited from earlier work
[4] = tested on: ADDP ovarian variant (cisplatin-resistant A2780 clone); parameters: method as in PMID 36296713, PMID 36142383; settings: cited from earlier work
multiple cell lines = tested on: multiple cell lines; parameters: method as in PMID 36296713, PMID 36142383; settings: mean over all cell lines tested; cited from earlier work
[5] = tested on: PC3 (prostate carcinoma) tumour; parameters: method as in PMID 18997969; settings: mice with PC3 tumour, cited from earlier work; for reduction in mean tumour mass: relative to vehicle-treated control
[6] = Stability in 10 mM PBS monitored by HPLC; assay type: physicochemical; settings: 10 mM PBS pH ~7.4, 36 h, room temperature and 37 °C
Experimental: The stability measurements for complexes 1–6 were determined by dissolving each complex in 10 mM aqueous phosphate buffered saline (PBS) solution at pH ~7.4 and incubated at room temperature and at 37 °C for 36 h. The experiments were monitored via HPLC.
Additional stability studies for 1–6 were undertaken using 10 mM PBS (~7.4 pH) as the aqueous solution, but without the presence of a reducing agent such as AsA. This was only to show whether the complexes would be stable in aqueous solution for long hours. Each complex was dissolved in PBS and incubated at room temperature and at 37 °C for 36 h. After the incubation, all samples were analysed through HPLC. […] After 36 h at room temperature, peak traces of platinum(IV) complexes and the platinum(II) precursors, as well as the dissociated ACE ligand, were present, as shown in Figure S77. […] From this, it was reasoned that the larger the ligand conjugated to our platinum(IV) scaffold (i.e., ACE), the more susceptible the resulting derivatives (4–6) are to reduction, as they reduce even without a reducing agent. This parallels the results from the reduction experiments above, where 4–6 were the quickest to reduce in the presence of AsA.

[7] = Lipophilicity by HPLC (log kw); assay type: physicochemical; settings: extrapolated from log k versus % organic solvent
Experimental: Lipophilicity measurements were undertaken using HPLC, as previously described (see Supplementary Materials).
Lipophilicity measurements were undertaken using HPLC as previously described. The complexes were eluted at different isocratic ratios. The capacity factor (k) was calculated using the retention times of the complexes. A standard curve was generated to determine the log value of the capacity factor (log k), and this was performed by plotting the log k value at each isocratic ratio versus the percentage of the organic solvent used in solvent (Figure S61). This produced a linear expression that allowed for the extrapolation of log kw. Log kw is the measure of lipophilicity; therefore, a greater value corresponds to increased lipophilicity.

MCF10A / Du145 [8] = assay: Selectivity cytotoxicity index (GI50 in MCF10A/GI50 in Du145); settings: GI50 in MCF10A/GI50 in Du145
MCF10A / Du145 [9] = tested on: MCF10A / Du145; parameters: method as in PMID 36296713, PMID 36142383; settings: GI50 in MCF10A/GI50 in Du145, from data of previous studies; cited from earlier work
HT29 colon cells = tested on: HT29 colon cells; parameters: method as in PMID 36296713, PMID 36142383; settings: cited from earlier work
[10] = tested on: peritoneal carcinomatosis; parameters: method as in PMID 20535526; settings: BD-IX rats, intravenous and intraperitoneal routes; cited from earlier work

SMILES	GI50 (HT29 colon) [nM]	GI50 (U87 glioblastoma) [nM]	GI50 (MCF7 breast) [nM]	GI50 (A2780 ovarian) [nM]	GI50 (A431 skin) [nM]	GI50 (Du145 prostate) [nM]	GI50 (BE2C neuroblastoma) [nM]	GI50 [3] [nM]	GI50 [4] [nM]	GI50 (multiple cell lines) [nM]	log kw Values [7]	Selectivity Cytotoxicity Index (SCI) (MCF10A / Du145 [8])	Selectivity Cytotoxicity Index (SCI) (MCF10A / Du145 [9])	ROS Production (HT29 colon cells; HT29, 24 h) [RFU]	ROS Production (HT29 colon cells; HT29, 48 h) [RFU]	ROS Production (HT29 colon cells; HT29, 72 h) [RFU]	further results
COc1ccc2c(c1)c(CC(=O)OCC(=O)O)c(C)n2C(=O)c1ccc(Cl)cc1 [ACE, acemetacin]																	reported lipophilicity values [1]: 4.49; selectivity ratio [2]: 1
N.N.[Cl][Pt][Cl] [Cisplatin, cis-diamminedichloroplatinum(II)]	11300	3800 ± 1100	6500 ± 800	1000 ± 100	2400 ± 300	1200 ± 100	1900 ± 200	5200 ± 520	28000	5840 ± 610							reduction in mean tumour mass [5]: comparable reduction in mean tumour mass
COc1ccc2cc([C@H](C)C(=O)[O][Pt+2]3([OH])[N]4C=CC=c5cc(C)c6c(c54)[N]3C=CC=6)ccc2c1.N[C@H]1CCCC[C@@H]1N (stereo partly drawn) [Complex 2, [Pt^IV(5-Mephen)(SS-DACH)(NPX)(OH)]^2+]																	stability in PBS [6]: some traces of precursor platinum(IV) complexes and the dissociated NPX ligand were evident
COc1ccc2c(c1)c(CC(=O)OCC(=O)[O][Pt-2]13([OH])([NH2+][C@H]4CCCC[C@@H]4[NH2+]1)[n+]1cccc4ccc5ccc[n+]3c5c41)c(C)n2C(=O)c1ccc(Cl)cc1 [Complex 4, [Pt^IV(phen)(SS-DACH)(ACE)(OH)]^2+]											1.93	2.40					
COc1ccc2c(c1)c(CC(=O)OCC(=O)[O][Pt-2]13([OH])([NH2+][C@H]4CCCC[C@@H]4[NH2+]1)[n+]1cccc4cc(C)c5ccc[n+]3c5c41)c(C)n2C(=O)c1ccc(Cl)cc1 [Complex 5, [Pt^IV(5-Mephen)(SS-DACH)(ACE)(OH)]^2+]											2.16	15.4					
Cc1cc2c3c4c1=CC=C[N]4[Pt+2][N]3C=CC=2.N[C@H]1CCCC[C@@H]1N [Complex 5MESS]	33 ± 4	320 ± 26	200 ± 12	61 ± 10	120 ± 25	22 ± 3	270 ± 38	30 ± 2	34 ± 2	117 ± 12			1.36	204 ± 4	205 ± 3	188 ± 3	
COc1ccc2c(c1)c(CC(=O)OCC(=O)[O][Pt-2]13([OH])([NH2+][C@H]4CCCC[C@@H]4[NH2+]1)[n+]1cccc4c(C)c(C)c5ccc[n+]3c5c41)c(C)n2C(=O)c1ccc(Cl)cc1 [Complex 6, [Pt^IV(5,6-Me2phen)(SS-DACH)(ACE)(OH)]^2+]											2.29	15.5					
Cc1c(C)c2cccnc2c2ncccc12.N[C@H]1CCCC[C@@H]1N.[Pt] [Complex 56MESS, [Pt^II(5,6-Me2phen)(SS-DACH)]^2+]	10 ± 1.6	35 ± 6.4	93 ± 44	76 ± 57	29 ± 1	4.6 ± 0.4	59 ± 4	16 ± 1	13 ± 2	36 ± 10			3.48	240 ± 5	218 ± 3	255 ± 4	toxicity [10]: induced nephrotoxicity; tumour suppression response [10]: did not demonstrate tumour suppression response
C1=C[N]2[Pt+2][N]3C=CC=c4ccc(c2c43)=C1.N[C@H]1CCCC[C@@H]1N [PHENSS]	160 ± 45	980 ± 270	1500 ± 500	230 ± 30	480 ± 170	100 ± 38	380 ± 46	300 ± 58	190 ± 47	434 ± 110			3.00	174 ± 2	172 ± 9	176 ± 7	reduction in mean tumour mass [5]: comparable reduction in mean tumour mass; toxic side effects [5]: did not elicit any toxic side effects
